Results published in patent US20220387410A1, “4-[5-[(rac)-1-[5-(3-Chlorophenyl)-3-isoxazolyl]ethoxy]-4-methyl-4H-1,2,4-triazol-3-yl]pyridine for use in prevention and/or treatment of surmenage in a mammal” (priority 2019, published 2022).
Where two headings read alike, the source gives them in different places. Marks after values point to notes of the source that are not given here.

Key:
Mice = conditions: p<0.001, cited from earlier work
[1] = test system: cat or dog undergoing elective castration or ovariohysterectomy; assay: Recovery after neutering, TT001 added as pre-medication (Example 1); format: in vivo
Description: To study recovery after neutering, cage demeanour scoring using a simple descriptive scale was used. The dogs were premedicated with acepromazine and pethidine, intermuscular (i.m.) in a first group, or in a second group TT001 was also added as pre-medication.
Twenty to forty minutes after pre-medication, the sedation was scored with the SDS (simple descriptive scale). The dogs were induced with propofol. Anesthesia was maintained with isoflurane in oxygen. Intraoperative analgesia was provided with morphine, prior to surgery. At the end of the surgery, group 1 received meloxicam, while group 2 received no additional treatment.
(§1) At the end of the procedure and recovery SDS was scored.

[2] = test system: cat or dog undergoing elective castration or ovariohysterectomy; assay: Recovery after neutering, TT001 plus meloxicam vs meloxicam (Example 2); format: in vivo
Description: To study recovery after neutering, cage demeanour scoring using a simple descriptive scale was used. The dogs were premedicated with acepromazine and pethidine, i.m. in a first group, and meloxicam orally or in a second group TT001 was also added as pre-medication.
Twenty to forty minutes after pre-medication the sedation was scored with the SDS (simple descriptive scale). The dogs were induced with propofol. Anesthesia was maintained with isoflurane in oxygen. Intraoperative analgesia was provided with morphine, prior to surgery. At the end of the surgery, group 1 continued to receive meloxicam, while group 2 continued to receive TT001 as well as meloxicam. No additional treatment was administered.
as §1

mouse FST behavior = assay: Forced Swim Test; format: in vivo; conditions: for Immobility duration: mouse FST, vehicle 112.5 ± 14.10
Text: TT001 has been used in the Forced Swim Test. _For protocol see Can A., et al., The Mouse Forced Swim Test, J Vis Exp. 2012; (59): 3638.

rats = assay: Learned helplessness studies; format: in vivo, rat
Text: Nomura S. et al., Studies on animal model of depression: review and perspective, Review, Yakubutsu Seishin Kodo, 1989 December; 9(4):349-58.
TT001 was used in learned helplessness studies in rats.

dogs [3] = assay: Toxicological studies in dogs, maximum 52 weeks, gavage; format: in vivo, dog; conditions: dogs, 2, 6, 7 or 31 mg/kg by gavage, after 52 weeks
Description: Toxicological studies for TT001 in dogs, were performed on dogs using 2, 6, 7 or 31 mg/kg, for a maximum of 52 weeks. The dogs were fed with gavage throughout this period and blood samples were taken throughout the period.
Balcome at al Contemporary Topics 2004 by the American Association for Laboratory Animal Science. Vol 43. […] In addition, the animals are separated and live in small areas which further increase the stress.

[4] = Dissolution of TT001 in I.V. formulation vehicle; format: physicochemical; conditions: 0.1-10 mg/mL in 40% w/v HPβCD in water for injection; a couple of hours for complete dissolution
Description: Formulation Method for the Preparation of TT001 for I.V. Dosing, 0.1 to 10 mg/ml
The formulation method is applicable at concentrations in formulation between 0.1 and 10 mg/mL corresponding to 0.262 and 26.2 μmol/mL
Preparation of 40% w/v HPβCD solution in water for injection
Preparation of TT001 I.V. formulations between 0.1 and 10 mg/ml

TLESR = conditions: healthy volunteers, cited from earlier work
humans = conditions: cited from earlier work
dogs [5] = conditions: cited from earlier work
[6] = cat or dog undergoing elective castration or ovariohysterectomy
[7] = group 2 (TT001 pre-medication) vs group 1
[8] = group 2 (TT001 + meloxicam) vs group 1 (meloxicam)

SMILES: CN1CC(=O)NC1=NC(=O)Nc1cccc(Cl)c1 [Fenobam]
- stress-induced hyperthermia (SIH) (Mice; 10 mg/kg): significantly reversed
- stress-induced hyperthermia (SIH) (Mice; 30 mg/kg): significantly reversed

SMILES: C[C@@H](Oc1nnc(-c2ccncc2)n1C)c1cc(-c2cccc(Cl)c2)on1 [TT001, 4-[5-[(1R)-1-[5-(3-Chlorophenyl)-3-isoxazolyl]ethoxy]-4-methyl-4H-1,2,4-triazol-3-yl]pyridine]
- effect on duration of the recovery period [1, 6]: positive effect
- cortisol values ([1]; group 2 (TT001) vs commonly used anesthesia protocol): Lower
- Time to extubation ([1]; group 2 (TT001 added as pre-medication) vs group 1 (acepromazine, pethidine; meloxicam after surgery)): shorter
- Time to lifting the head after surgery [1, 7]: shorter
- Time to raising from the bed after surgery [1, 7]: shorter
- Time to start of spontaneous/voluntary urination after surgery [1, 7]: shorter
- Time to starting to eat after surgery [1, 7]: shorter
- nausea [1, 7]: Less
- effect on duration for the recovery period [2, 6]: positive effect
- Time to extubation [2, 8]: shorter
- Time to lifting the head after surgery [2, 8]: shorter
- Time to raising from the bedding after surgery [2, 8]: shorter
- Time to start of spontaneous/voluntary urination after surgery [2, 8]: shorter
- Time to starting to eat after surgery [2, 8]: shorter
- cortisol values [2, 8]: Lower
- nausea [2, 8]: Less
- time in intensive care/PACU unit [2, 8]: Less
- Immobility duration (mouse FST behavior; TT001 3 μmol/kg): 51.15 ± 7.788 ^a sec
- Immobility duration (mouse FST behavior; TT001 10 μmol/kg): 47.45 ± 11.45 ^a sec
- Immobility duration (mouse FST behavior; TT001 30 μmol/kg): 44.83 ± 4.693 ^a sec
- signs of gastric ulcer or changes in mucosa (mouse FST behavior; test animals of the mouse Forced Swim Test): none of the test animals had signs of gastric ulcer
- Escape Failures, Day 4 Mean (rats; 1.8 μmol/kg, vehicle 11.1): 2.2
- Escape Failures, Day 3 Mean (rats; 1.8 μmol/kg, vehicle 23.2): 6.9
- Escape Failures, Total Day 3 + Day 4 (rats; 1.8 μmol/kg, vehicle 34.25, p < 0.05 vs vehicle): 9.1 ^a
- stomach ulcers (rats; learned helplessness studies): did not appear
- signs of gastric ulcer (dogs [3]): none of the animals showed signs of gastric ulcer
- dissolution [4]: moderate
- effect on TLESR (TLESR; 13 mg (about 0.19 mg/kg), 2 to 3 hours after food-intake): some effect
- side effects (TLESR; high doses of 13 mg): Some serious side effects
- effect on reflux (TLESR; prior to food intake and 1-2 hours after food intake): no significant effect
- effect on anxiety (humans; humans): no effect
- clinical effect in all indications (chronic pain, anxiety, GERD) (humans; man, oral, clinical development discontinued): lack of effect

SMILES: COc1cccc(C2(O)CCCCC2CN(C)C)c1 (centres unmarked) [Tramadol]
- pain killer effect (dogs [5]): not present
